Measured values taken from paper PMC9299640, “Incorporation of β‐Alanine in Cu(II) ATCUN Peptide Complexes Increases ROS Levels, DNA Cleavage and Antiproliferative Activity” (Chemistry (Weinheim an Der Bergstrasse, Germany), 2021).

Columns and labels:
[1] = Detection of hydroxyl radicals (TPA) and hydrogen peroxide (PBSF) by fluorescence spectroscopy; format: biochemical; settings: 40 μM complex or CuCl2, ascH− 1 mM, MOPS 50 mM pH 7.4, TPA 0.5 mM or PBSF 25 μM, up to 3.5 h, r.t.
Protocol: To similarly confirm increased DNA cleavage as a result of enhanced ROS formation when introducing β‐Ala2 in the ATCUN motif, the ^•OH and H2O2 production was monitored. To follow the evolution of these species, the oxidation of terephthalate (TPA → HO‐TPA) by ^•OH[40] and the perhydrolysis of pentafluorobenzenesulfonyl fluorescein (PBSF) into fluorescein by H2O2 [40] were analyzed by fluorescence spectroscopy. In Figure 5, the kinetics of ^•OH and H2O2 production by complexes 1 (Gly2), 3 (β‐Ala2), 4 (β‐Ala2; Lys1/4) and CuCl2 are depicted.
Figure 5 Kinetics of ^•OH (left) and H2O2 (right) production for 1, 3, 4 and CuCl2 (40 μM) in the presence of ascH^− (1 mM) in MOPS buffer (50 mM, pH 7.4) monitored by fluorescence evolution of HO‐TPA (λ ex 320 nm, λ em=428 nm) from TPA (0.5 mM), and fluorescein (λ ex=485 nm, λ em=513 nm) from PBSF (25 μM).
S-8 Detection of hydroxyl radicals and hydrogen peroxide
For the identification of generated ROS by Cu(II) ATCUN complexes during DNA cleavage, gel electrophoresis was used for a ROS quenching experiment (Figure 4). Detection of hydroxyl radicals and hydrogen peroxide generated by metallonucleases was additionally performed by fluorescence spectroscopy.
The fluorescent dyes disodium terephthalate (TPA) and pentafluorobenzenesulfonyl fluorescein (PBSF) were used for the detection of hydroxyl radicals and hydrogen peroxide, respectively. […]

[2] = tested on: NCI-H460 (non-small cell lung carcinoma); assay: Antiproliferative activity, sulforhodamine B (SRB) assay; format: cell-based, human; settings: exposure 72 h, 3-fold dilutions, α-MEM + 5% fetal calf serum, 37 °C, mean ± SD of at least three independent experiments
Protocol: (§1) The antiproliferative activity of selected Cu(II) ATCUN complexes was investigated towards different tumor cell lines (HCT116, NCI-H460, SiHa and SW480 cells) and expressed as the IC50 values.
(§2) Table S13. Accumulation of Cu in HCT116 cells after 24 h incubation with Cu-GGH, 1, 3, 4 and CuCl2 (70 µM) as determined by ICP-MS (n = 3), and cytotoxic activity in human cancer cell lines HCT116, NCI-H460, SiHa and SW480 expressed as the IC50 ± SD (in µM) as well as by the residual viable cells after treatment with 70 μM of the respective compound (%) as determined by the SRB assay (exposure time 72 h). accumulated Cu IC50 values […]
(§3) a – indicates no antiproliferative activity observed after treatment with the respective compound at 70 μM for 72 h.
(§4) S-12.1 Determination of IC50 values against HCT116, NCI-H460, SiHa and SW480 […]
(§5) HCT116, SW480 and NCI-H460 cells were supplied by ATCC, while SiHa cells were supplied by Dr. David Cowan, of the Ontario Cancer Institute, Canada. The cells were grown in α-MEM (Life Technologies) supplemented with 5% fetal calf serum (Moregate Biotech) at 37 °C in a humidified incubator with 5% CO2. […]
(§6) in 96-well plates and left to settle for 24 h. Compounds were added as water solutions to the plates in a series of 3-fold dilutions for 72 h before the assay was terminated by addition of 10% trichloroacetic acid (Merck Millipore) at 4 °C for 1 h. Cells were stained […]
(§7) with 0.4% sulforhodamine B (Sigma-Aldrich) in 1% acetic acid for 30 min in the dark at room temperature and then washed with 1% acetic acid to remove unbound dye. The stain was dissolved in unbuffered Tris base (10 mM, Serva) for 30 min on a plate shaker in the dark and quantified on a BioTek EL808 microplate reader at an absorbance of 490 nm with a reference wavelength of 450 nm to determine the percentage of cell-growth inhibition by determining the absorbance of each sample relative to a negative (no inhibitor) and a no-growth control (day 0). IC50 values were calculated with SigmaPlot 12.5 (Systat Software Inc.) using a three-parameter logistic sigmoidal dose−response curve between the calculated growth inhibition and the compound concentration. The presented IC50 values are the mean of at least three independent experiments, where 10 concentrations were tested in duplicate for each compound.
(§8) Ventures), by diluting with a matrix-matched solution with regard to HNO3 and Tm concentration, producing calibration standards with concentrations of 0.5, 1, 3, 5, 7, 10, […]
(§9) The measured Cu concentrations in the cell accumulation samples were in the range of 27–82 μg/L. The reported values are the means of at least three independent accumulation experiments conducted in triplicates with blank wells for each substance to account for unspecific binding of the Cu(II) complexes to the plastic of the well plates.
(§10) Accumulation values have been corrected by subtracting the average amount Cu determined in the cell-free wells.
(§11) Calibration curves for Cu were prepared with concentrations ranging from 0.5–100 µg/L. The limit of detection (LOD) was defined as 3 times the random error in the y-direction (Sy/x) of the calibration curve divided by the slope of the calibration curve. The limit of quantification (LOQ) was defined as 10 times the random error in the y-direction (Sy/x) of the calibration curve divided by the slope of the calibration curve.42 The LOD was determined for Cu as 1.8 μg/L and the LOQ was 5.95 μg/L.

[3] = tested on: HCT116 (colorectal carcinoma); assay: as above; format: cell-based, human
Protocol: as §1, §2, §3, §4, §5, §6, §7, §8, §9, §10, §11

[4] = tested on: SiHa (cervical carcinoma); assay: as above; format: cell-based, human
Protocol: as §1, §2, §3, §4, §5, §6, §7, §8, §9, §10, §11

[5] = tested on: SW480 (colon adenocarcinoma); assay: as above; format: cell-based, human
Protocol: as §1, §2, §3, §4, §5, §6, §7, §8, §9, §10, §11

[6] = after treatment with 70 μM, 72 h
[7] = exposure 72 h, 3-fold dilutions, α-MEM + 5% fetal calf serum, 37 °C, mean of at least three independent experiments

## [Cl][Cu][Cl] [CuCl2, reference compound]
[1]
  catalytic ROS generation (•OH and H2O2 production, in words): highest ^•OH and H2O2 formation
[2]
  IC50: > 70 µM
[3]; [6]
  residual viable cells HCT116: 87 ± 6%
[3]; exposure 72 h, 3-fold dilutions, α-MEM + 5% fetal calf serum, 37 °C, Cu(II):peptide 1:1.05, mean ± SD of at least three independent experiments
  IC50: > 70 µM
[4]; [6]
  residual viable cells SiHa: 93 ± 22%
[4]; [7]
  IC50: > 70 µM
[5]; [6]
  residual viable cells SW480: – (indicates no antiproliferative activity observed after treatment with the respective compound at 70 μM for 72 h)
[5]; [7]
  IC50: > 70 µM
